Source: PubChem BioAssay AID330 (DTP/NCI, 2004)
Values joined by “and” are separate entries in the source; they are usually repeats but may differ in a detail not shown here. Equal values may be shown once. Inconclusive results and toxic doses are left out. How the source made its calls: active means survival T/C of 150% or more; inactive means T/C below 125% in these data.

Test system: P388 leukemia ip, CD2F1 mice, survival T/C
Assay: NCI In Vivo Anticancer Drug Screen. Data for tumor model P388 Leukemia (intraperitoneal) in CD2F1 (CDF1) mice
Settings: endpoint: median survival time, higher = longer survival
Procedure, shortened: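 Mice carrying the transplanted tumor received test compound or vehicle. Survival was recorded in each group, and the value is the treated-group measurement divided by that of the vehicle-treated control group.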

[1] = dose: 50.0 mg/kg/injection, schedule: Q04DX003 (ip), vehicle: Klucel (hydroxypropylcellulose) (HPC)
[2] = dose: 100.0 mg/kg/injection, schedule: Q04DX003 (ip), vehicle: Klucel (hydroxypropylcellulose) (HPC)
[3] = dose: 200.0 mg/kg/injection, schedule: Q04DX003 (ip), vehicle: Klucel (hydroxypropylcellulose) (HPC)
[4] = dose: 400.0 mg/kg/injection, schedule: Q04DX003 (ip), vehicle: Klucel (hydroxypropylcellulose) (HPC)
[5] = dose: 100.0 mg/kg/injection, schedule: Q01DX009 (ip), vehicle: Klucel (hydroxypropylcellulose) (HPC)
[6] = dose: 200.0 mg/kg/injection, schedule: Q01DX009 (ip), vehicle: Klucel (hydroxypropylcellulose) (HPC)
[7] = dose: 50.0 mg/kg/injection, schedule: Q01DX005 (ip), vehicle: saline with Tween-80
[8] = dose: 100.0 mg/kg/injection, schedule: Q01DX005 (ip), vehicle: saline with Tween-80
[9] = dose: 200.0 mg/kg/injection, schedule: Q01DX005 (ip), vehicle: saline with Tween-80
[10] = dose: 100.0 mg/kg/injection, schedule: Q01DX001 (ip), vehicle: Klucel (hydroxypropylcellulose) (HPC)
[11] = dose: 200.0 mg/kg/injection, schedule: Q01DX001 (ip), vehicle: Klucel (hydroxypropylcellulose) (HPC)
[12] = dose: 400.0 mg/kg/injection, schedule: Q01DX001 (ip), vehicle: Klucel (hydroxypropylcellulose) (HPC)
[13] = dose: 50.0 mg/kg/injection, schedule: Q01DX005 (ip), vehicle: Klucel (hydroxypropylcellulose) (HPC)
[14] = dose: 100.0 mg/kg/injection, schedule: Q04DX002 (ip), vehicle: saline with Tween-80
[15] = dose: 400.0 mg/kg/injection, schedule: Q01DX009 (ip), vehicle: Klucel (hydroxypropylcellulose) (HPC)
[16] = dose: 50.0 mg/kg/injection, schedule: Q01DX009 (ip), vehicle: saline with Tween-80
[17] = dose: 100.0 mg/kg/injection, schedule: Q01DX009 (ip), vehicle: saline with Tween-80
[18] = dose: 200.0 mg/kg/injection, schedule: Q01DX009 (ip), vehicle: saline with Tween-80
[19] = dose: 60.0 mg/kg/injection, schedule: Q01DX005 (ip), vehicle: saline with Tween-80
[20] = dose: 120.0 mg/kg/injection, schedule: Q01DX005 (ip), vehicle: saline with Tween-80
[21] = dose: 50.0 mg/kg/injection, schedule: Q01DX009 (ip), vehicle: saline

Measured: T/C

O=S(=O)(ON=C1C=CC(=NOS(=O)(=O)c2ccccc2)C=C1)c1ccccc1
inactive: dose: 25.0 mg/kg/injection, schedule: Q04DX003 (ip), vehicle: Klucel (hydroxypropylcellulose) (HPC) 107 % of control and 94 % of control | [1] 103 % of control and 87 % of control and 94 % of control | [2] 94 % of control | [3] 99 % of control and 100 % of control | [4] 116 % of control

C=C1C(=O)OC2C(O)CCCC12 (stereo not given)
inactive: [1] 105 % of control and 110 % of control | [2] 98 % of control and 103 % of control | [3] 110 % of control

O=C(O)CNC(=O)CNc1nc(Cl)nc(NCC(=O)NCC(=O)O)n1
inactive: dose: 60.0 mg/kg/injection, schedule: Q01DX005 (ip), vehicle: Klucel (hydroxypropylcellulose) (HPC) 97 % of control | dose: 120.0 mg/kg/injection, schedule: Q01DX005 (ip), vehicle: Klucel (hydroxypropylcellulose) (HPC) 96 % of control | dose: 240.0 mg/kg/injection, schedule: Q01DX005 (ip), vehicle: Klucel (hydroxypropylcellulose) (HPC) 93 % of control

BrC/C(=N\N=C(\CBr)c1ccc(Br)cc1)c1ccc(Br)cc1
inactive: dose: 50.0 mg/kg/injection, schedule: Q01DX009 (ip), vehicle: Klucel (hydroxypropylcellulose) (HPC) 100 % of control | [5] 100 % of control | [6] 91 % of control

N#CC(OC(=O)c1ccccc1)C(OC(=O)c1ccccc1)C(COC(=O)c1ccccc1)OC(=O)c1ccccc1 (stereo not given)
inactive: [7] 99 % of control and 92 % of control | [8] 94 % of control | [9] 99 % of control

CCOC(=O)C(CC(C)/C=N\Nc1ccccc1)(NC(C)=O)C(=O)OCC (stereo not given)
inactive: [10] 95 % of control | [11] 93 % of control | [12] 99 % of control

CC(C)c1oc(=O)cc2c1[C@@H](O)[C@H]1OC(=O)[C@@]3(C)[C@@H](O)[C@H]4O[C@H]4[C@@]2(C)[C@@H]13
inactive: dose: 0.94 mg/kg/injection, schedule: Q01DX001 (ip), vehicle: saline with Tween-80 105 % of control | dose: 1.0 mg/kg/injection, schedule: Q01DX009 (ip), vehicle: saline with Tween-80 104 % of control | dose: 1.88 mg/kg/injection, schedule: Q01DX001 (ip), vehicle: saline with Tween-80 105 % of control | dose: 3.75 mg/kg/injection, schedule: Q01DX001 (ip), vehicle: saline with Tween-80 101 % of control and 107 % of control | dose: 7.5 mg/kg/injection, schedule: Q01DX009 (ip), vehicle: saline with Tween-80 120 % of control | dose: 10.0 mg/kg/injection, schedule: Q01DX009 (ip), vehicle: saline with Tween-80 113 % of control and 115 % of control | dose: 15.0 mg/kg/injection, schedule: Q01DX001 (ip), vehicle: saline with Tween-80 108 % of control and 120 % of control | dose: 15.0 mg/kg/injection, schedule: Q01DX009 (ip), vehicle: saline with Tween-80 104 % of control | dose: 30.0 mg/kg/injection, schedule: Q01DX001 (ip), vehicle: saline with Tween-80 109 % of control and 113 % of control

CN(C)c1nc2ccccn2c1C(=O)c1ccccc1
inactive: [2] 103 % of control | [3] 100 % of control | [4] 103 % of control

Cc1ccc(S(=O)(=O)NC2CC3(C)CCC2C3(C)C)cc1 (stereo not given)
inactive: [13] 94 % of control | dose: 100.0 mg/kg/injection, schedule: Q01DX005 (ip), vehicle: Klucel (hydroxypropylcellulose) (HPC) 97 % of control | dose: 200.0 mg/kg/injection, schedule: Q01DX005 (ip), vehicle: Klucel (hydroxypropylcellulose) (HPC) 87 % of control

NS(=O)(=O)c1ccc(CN2C(=O)c3ccccc3C2=O)cc1
inactive: [14] 110 % of control

O=C(CS(=O)(=O)c1ccccc1)c1ccccc1
inactive: [5] 101 % of control | [6] 101 % of control | [15] 105 % of control

O=C(Nc1ccccc1)OCc1ccc(OCc2ccccc2)cc1
inactive: dose: 25.0 mg/kg/injection, schedule: Q01DX009 (ip), vehicle: saline with Tween-80 107 % of control and 94 % of control | [16] 110 % of control and 95 % of control | [17] 104 % of control and 89 % of control | [18] 95 % of control

CN(C)CCCOc1cccc(NC2=C(Cl)C(=O)C(Nc3cccc(OCCCN(C)C)c3)=C(Cl)C2=O)c1
inactive: dose: 6.25 mg/kg/injection, schedule: Q01DX005 (ip), vehicle: Klucel (hydroxypropylcellulose) (HPC) 99 % of control | dose: 12.5 mg/kg/injection, schedule: Q01DX005 (ip), vehicle: Klucel (hydroxypropylcellulose) (HPC) 100 % of control | dose: 25.0 mg/kg/injection, schedule: Q01DX005 (ip), vehicle: Klucel (hydroxypropylcellulose) (HPC) 109 % of control | [13] 100 % of control

O=C(Nc1ccc(F)cc1)N1CCOCC1
inactive: [19] 98 % of control | [20] 93 % of control | dose: 240.0 mg/kg/injection, schedule: Q01DX005 (ip), vehicle: saline with Tween-80 93 % of control

C1=CC=CCC=C1
inactive: dose: 12.5 mg/kg/injection, schedule: Q01DX009 (ip), vehicle: saline with Tween-80 120 % of control

COCCN1C(N)=C(C#N)N=C2CCCC(N=C(C#N)C#N)=C21
inactive: [7] 100 % of control | [8] 107 % of control | [9] 101 % of control

CCCc1cccc2c3c([nH]c12)C(CC)(CC(=O)O)OCC3 (stereo not given)
inactive: [10] 96 % of control | [11] 96 % of control | [12] 91 % of control

Cc1cc(=O)oc2c1ccc1c(O)cccc12
inactive: [19] 106 % of control | [20] 100 % of control

CCOC(=O)C(N=Nc1nn[nH]n1)c1ncn[nH]1 (stereo not given)
inactive: dose: 50.0 mg/kg/injection, schedule: Q01DX001 (ip), vehicle: Klucel (hydroxypropylcellulose) (HPC) 98 % of control | [10] 98 % of control | [11] 91 % of control

C[n+]1cc(Cl)cc(Br)c1
inactive: dose: 25.0 mg/kg/injection, schedule: Q01DX005 (ip), vehicle: saline 117 % of control

CCOC(=O)c1c(C)[nH]oc1=O
inactive: dose: 25.0 mg/kg/injection, schedule: Q01DX009 (ip), vehicle: saline sonified 109 % of control | dose: 50.0 mg/kg/injection, schedule: Q01DX009 (ip), vehicle: saline sonified 100 % of control | dose: 100.0 mg/kg/injection, schedule: Q01DX009 (ip), vehicle: saline sonified 100 % of control

C/C=C(/C)C(=O)OC1CC(C)=CC(OC(=O)/C(C)=C\C)[C@]2(C)C1[C@](O)(C(C)C)C[C@H]2O (stereo not given in full)
inactive: dose: 2.0 mg/kg/injection, schedule: Q01DX005 (ip), vehicle: Klucel (hydroxypropylcellulose) (HPC) 106 % of control | dose: 4.0 mg/kg/injection, schedule: Q01DX005 (ip), vehicle: Klucel (hydroxypropylcellulose) (HPC) 96 % of control | dose: 8.0 mg/kg/injection, schedule: Q01DX005 (ip), vehicle: Klucel (hydroxypropylcellulose) (HPC) 99 % of control | dose: 16.0 mg/kg/injection, schedule: Q01DX005 (ip), vehicle: Klucel (hydroxypropylcellulose) (HPC) 99 % of control

CCCCOC(=O)c1ccc2nc(NC(=O)OC)[nH]c2c1
inactive: [14] 100 % of control | dose: 200.0 mg/kg/injection, schedule: Q04DX002 (ip), vehicle: saline with Tween-80 90 % of control | dose: 400.0 mg/kg/injection, schedule: Q04DX002 (ip), vehicle: saline with Tween-80 91 % of control

CC(/C=N/Nc1ccccc1)=N\N=c1/scc(-c2ccc(Br)cc2)n1-c1ccc(C)cc1
inactive: dose: 100.0 mg/kg/injection, schedule: Q01DX001 (ip), vehicle: saline with Tween-80 88 % of control | dose: 400.0 mg/kg/injection, schedule: Q01DX001 (ip), vehicle: saline with Tween-80 86 % of control

CC(CC(=O)O)(CC(=O)O)CC(=O)O
inactive: [16] 110 % of control | [17] 101 % of control | [18] 97 % of control

CC(C)(CCl)C(=O)O
inactive: [21] 95 % of control

CC(C)N=C(Cc1ccccc1)NC(C)(C)C
inactive: dose: 12.5 mg/kg/injection, schedule: Q01DX009 (ip), vehicle: saline 111 % of control | dose: 25.0 mg/kg/injection, schedule: Q01DX009 (ip), vehicle: saline 101 % of control | [21] 98 % of control

O=C=Nc1ccc(Cc2ccc(N=C=O)cc2)cc1
inactive: [5] 103 % of control | [6] 98 % of control | [15] 93 % of control
